The values below come from patent US20040120954A1, “Regulation of mt1-mmp activity” (priority 2000, published 2004).

The test system of assay [1] is MT1-MMP. Put plainly: Activation of proMMP-2 by MT1-MMP on the cell surface of transfected cells (gelatin zymography). It counts as cell-based, human. To be noted: transfected COS1 cells, exogenous purified proMMP-2 (FIGS. 2, 20). The method, then:
Gelatin zymography was conducted using an SDS-polyacrylamide gel (PAGE) containing gelatin (0.8 mg/ml) (Itoh, Y. et al., J. Biol. Chem., 273: 24360-24367, 1998). The samples were mixed with a SDS-PAGE loading buffer without a reducing agent and subjected to electrophoretic analysis at room temperature. Enzyme activity was visualized as a negative staining area with Coomassie Brilliant Blue R-250.
The expression construct for FLAG epitope ([…]-tagged MT1-MMP (MT1-F) described in Itoh, Y. et al., J. Biol. Chem., 274: 34260-34266, 1999 was used as a template to generate cDNA for MT1Cat-F (A Ile^318-Gly^535) by the PCR extension method of Ho et al., (Ho, S. N. et al., Gene, 77: 51-59, 1989). The cDNA was subcloned into pSG5 (Stratagene, CA, USA). The PCR-generated fragments were confirmed by DNA sequencing. COS1 cells were transfected with the expression vector for MT1-MMP mutant; MT1-F or MT1Cat-F, or a vector alone (Mock). Expression vectors for each protein were transfected using FuGENE6™ (Roche Molecular Biochemicals) according to the manufacturer's instructions. COS1 cells were seeded in 6-well plates at 1.5×10^5/well at 16 hrs before the transfection was performed. The COS1 cells were maintained in a HAM F-12 medium or DMEM containing 10% fetal bovine serum in a humidified incubator at 37° C. At 48 hrs after the transfection, the cells were collected for use in the experiments. The cells were incubated in the presence of purified proMMP-2 in a serum-free medium (0.25 μg/ml) at 37° C. for 18 hrs. Cell lysates were tested for the expression of the mutants, while culture supernatants were tested for the activation of proMMP-2.
To investigate roles of dimer formation upon the activation of proMMP-2, MT1-F was introduced into COS1 cells together with MT1PEX-F. The co-introduced cells were reacted with exogenously added proMMP-2. Thus, COS1 cells were co-transfected with the MT1-F and MT1PEX-F at indicated DNA amount ratios. Next, purified proMMP-2 (0.25 μg/ml) in a serum-free medium was reacted with the resulting cells at 37° C. for 18 hrs. MMP-2 in the culture supernatant was analyzed by gelatin zymography, and the cell lysates were subjected to Western blotting analysis using a monoclonal anti-FLAG M2 antibody.
(§1) Next, to determine if MT1PEX-F affects the catalytic activity of MT1-MMP on the cell surface or not, tests for gelatin degrading activity and binding capacity to TIMP-2 were conducted using cells transfected in the same incubator. As shown in FIGS. 12 through 14, CHO-K1 cells were transfected with an expression vector for MT1-F, MT1-F/MT1PEX-F or MT1Cat-F, or a vector alone (Mock). The cells were then treated with trypsin, and separately seeded to: DQ™ gelatin-coated cover slips for testing the proteolytic activity (FIG. 13); and 24-well plates for TIMP-2 binding assay (FIG. 12) and for the activation of proMMP-2 (FIG. 14). Transfected cells on the DQ™ gelatin-coated cover slip as shown in FIG. 13 were incubated in a medium at 37° C. for 18 hrs, and the generated fluorescence was analyzed using confocal microscopy. Transfected cells on the 24-well plate as shown in FIG. 12 were incubated with 25 nM ^125I-labeled TIMP-2 in the presence or absence of BB-94 (50 μM) at 0° C. for 1 hr. MT1-MMP specific binding was calculated by subtracting the datum obtained in the presence of BB-94 (50 μM) from each datum derived from the corresponding experiments. […] DQ™ gelatin is a fluorescence-quenched gelatin, which fluoresces upon proteolytic cleavage. […]

Assay [2] concerns MT1-MMP. Description: In situ gelatin degrading assay (DQ gelatin or Alexa488-conjugated gelatin). It counts as cell-based, human. To be noted: DQ gelatin; CHO-K1 (FIG. 13) or COS1 cells (FIG. 22). The method, then: Two different in situ gelatin degrading assays were performed. One used DQ™ gelatin (Molecular Probes, Inc., OR, USA). DQ gelatin is a fluorescence-quenched gelatin substrate, and will fluoresce upon proteolytic cleavage. Glass cover slips were coated with 5% DQ™ gelatin in a 10 mg/ml unlabeled gelatin solution, and dried. Transfected cells were cultured on the cover slip in a humidified chamber for 16 hrs. The cells were then fixed with 3% para-formaldehyde and the degraded areas were visualized as those showing fluorescence.
The other assay used Alexa488-conjugated gelatin made with an Alexa488-labeling kit (Molecular Probes). The bottom surfaces of 4-well chamber slides (Nunc) were coated with Alexa488-conjugated gelatin according to the method of Yana, I. and Weiss, S. J., Mol. Biol. Cell, 11, 2387-2401, 2000. Transfected COS1 cells were cultured in the chamber slides for 16 hrs in a humidified culture incubator. The cells were then fixed with 3% para-formaldehyde in PBS, and the degraded area was analyzed under a fluorescence microscope. The degraded area was visualized as a dark, non-fluorescent area. Fluorescence images were analyzed using confocal microscopy (BioRad).
as §1, with “experiments. Identically transfected cells on the 24-well plate as shown in FIG. 14 were subjected to the reaction with purified proMMP-2 in a serum-free medium at 37° C. for 18 hrs. The cells and culture supernatants were respectively subjected to Western blotting analysis using a monoclonal anti-FLAG M2 antibody, and gelatin zymography analysis.” for “experiments.”

The next assay deals with T1, MT1-F (Homo sapiens, UniProt P50281).
T1 construct: expressed in transfected cells
Description: Co-immunoprecipitation with MT1-F using anti-FLAG M2 beads (COS1 cells). It counts as binding. To be noted: co-expressed in COS1 cells (FIG. 18). The method, then: Transfected COS1 cells were lysed in a RIPA buffer (50 mM Tris-HCl, pH 7.5; 150 mM NaCl; 1% Triton-X100; 1% sodium deoxycolate; 0.1% SDS; 1 mM EDTA; 1 mM PMSF; 10 μM E-64; 0.02% NaN3) at room temperature for 1 hr. Cell lysates were centrifuged at 15,000 rpm in Eppendorf tubes, and the supernatant was reacted with anti-FLAG M2 antibody-conjugated beads (Sigma) at 4° C. for 1 hr. The beads were washed three times with a RIPA buffer and once with Tris-buffered saline (pH 7.5) (TBS). Bound proteins were eluted by the FLAG peptide ([…] 200 μg/ml) (Sigma) in TBS, and subjected to Western blot analysis using a monoclonal mouse anti-FLAG epitope M2 antibody (Sigma), a monoclonal mouse anti-c-Myc antibody (Ab-1) (Oncogene, MA, USA; 1 μg/ml), a rabbit anti-(human MT1Cat) antibody (1:2000), or a monoclonal mouse anti-human MT1PEX antibody (222-1D8) (0.5 μg/ml).
The activation of proMMP-2 by MT1-MMP on the cell surface requires the ternary complex formation of proMMP-2, TIMP-2 and MT1-MMP, and also the presence of TIMP-2-free MT1-MMP near the ternary complex. If TIMP-2-free MT1-MMP and the ternary complex are far apart, the activation should not occur. We thus hypothesized that MT1-MMP would form a homophilic complex on the cell surface to arrange the effective activation complex for MMP-2. […]

Turning to “MT1Cat: MT1-MMP lacking the PEX domain (untagged)”, the “activation of proMMP-2 by cells expressing the mutant” value in the assay with MT1-MMP [1] is “cannot activate proMMP-2”. The “gelatin degrading (proteolytic) activity of cells expressing the mutant” value in the assay with MT1-MMP [2] is listed as “retains its proteolytic activity”. Also, in the assay with MT1-F, the “co-immunoprecipitation with MT1-F” value is listed as “not MT1Cat was co-immunoprecipitated with MT1-F”.
